Reference: PMC3256138, “Disease Progression in MRL/lpr Lupus-Prone Mice Is Reduced by NCS 613, a Specific Cyclic Nucleotide Phosphodiesterase Type 4 (PDE4) Inhibitor” (PLoS ONE, 2012)
Like-named read-outs stand apart in the source and are kept apart here.

Assays:
PDE4 [1] = assay: IC50 on purified PDE4 isozyme; type: biochemical, bovine; details: for IC50: 1 µM cAMP substrate, mean±s.e.m. of three experiments
Description: (§1) PDE1, PDE3, PDE4 and PDE5 were isolated by anion exchange chromatography from bovine aortic smooth muscle cytosolic fraction. PDE2 was isolated from human platelets following the method described in [44]. Purified PDEs were stored as small aliquots at −80°C until use. PDE activity was determined at a substrate concentration of 1 µM cAMP or cGMP in the presence of 10,000 cpm [^3H]-cAMP or -cGMP as tracers. PDE1 activity was assessed at 1 µM cGMP in calmodulin-activated state (18 nM calmodulin with 10 µM CaCl2). PDE2 activity was assessed at 1 µM cAMP in activated state (+5 µM cGMP), and PDE3 and PDE4 activities were assessed at 1 µM cAMP in the presence of 1 mM EGTA. […] PDE5 activity was measured at 1 µM cGMP in the presence of 1 mM of EGTA. […] This concentration of DMSO had no effect when tested in control preparation.

human recombinant PDE4A = molecular target: T1, human recombinant PDE4A (Homo sapiens, UniProt P27815); assay: IC50 on human recombinant PDE4A; type: biochemical
T1 construct: gift of Ted J. Torphy (SmithKline Beecham Pharmaceuticals, King of Prussia, PA, USA)

PDE4 [2] = system: PDE4; parameters: method as in PMID 9191951; details: text value with reference; cited from earlier work
MRL/lpr lupus-prone mice = assay: Treatment of MRL/lpr lupus-prone mice with PDE inhibitors: proteinuria, survival, anti-DNA antibodies; details: for Proteinuria level compared to the control group / Age at which treated mice started dying: i.v. at 5, 7, 9 and 13 weeks; for Proteinuria level compared to the control group: 100 µg pentoxifylline or 30 µg NCS 613; for Age at which treated mice started dying: control 17 weeks; for Median survival time / Mice with positive proteinuria: 100 µg i.v. at 5, 7, 9 and 13 weeks; for Mice with positive proteinuria: at 18 weeks of age
Description: All mice were monitored regularly for different clinical and biological parameters over 26 weeks. Measurements of outcome included the evaluation of survival and proteinuria measured on a fresh urine sample. Protein levels were determined using colored strips (Albutix; Bayer Diagnostics, Basingstoke, UK) and scored at values corresponding to 30, 100, 300 and >2000 mg/dL.

PBLs from SLE patients = assay: TNFα secretion by PBLs from SLE patients; type: cell-based, human; details: for Effect on LPS-induced TNFα production: 5 µg/mL LPS, 24 h
Description: PBLs were isolated by centrifugation on Ficoll-Histopaque (Sigma-Aldrich) and cultured as described above using 5×10^5 cells/well. […] Culture supernatants were collected 24 h later and stored frozen at −20°C before TNFα level determination, as described above.

PDE3 = molecular target: T2, PDE3 (Bos taurus, UniProt A0A3Q1M1E8); assay: IC50 on purified PDE3 isozyme; type: biochemical, bovine; details: 1 µM cAMP substrate; mean±s.e.m. of three experiments
T2 sequence (A0A3Q1M1E8 1-1126): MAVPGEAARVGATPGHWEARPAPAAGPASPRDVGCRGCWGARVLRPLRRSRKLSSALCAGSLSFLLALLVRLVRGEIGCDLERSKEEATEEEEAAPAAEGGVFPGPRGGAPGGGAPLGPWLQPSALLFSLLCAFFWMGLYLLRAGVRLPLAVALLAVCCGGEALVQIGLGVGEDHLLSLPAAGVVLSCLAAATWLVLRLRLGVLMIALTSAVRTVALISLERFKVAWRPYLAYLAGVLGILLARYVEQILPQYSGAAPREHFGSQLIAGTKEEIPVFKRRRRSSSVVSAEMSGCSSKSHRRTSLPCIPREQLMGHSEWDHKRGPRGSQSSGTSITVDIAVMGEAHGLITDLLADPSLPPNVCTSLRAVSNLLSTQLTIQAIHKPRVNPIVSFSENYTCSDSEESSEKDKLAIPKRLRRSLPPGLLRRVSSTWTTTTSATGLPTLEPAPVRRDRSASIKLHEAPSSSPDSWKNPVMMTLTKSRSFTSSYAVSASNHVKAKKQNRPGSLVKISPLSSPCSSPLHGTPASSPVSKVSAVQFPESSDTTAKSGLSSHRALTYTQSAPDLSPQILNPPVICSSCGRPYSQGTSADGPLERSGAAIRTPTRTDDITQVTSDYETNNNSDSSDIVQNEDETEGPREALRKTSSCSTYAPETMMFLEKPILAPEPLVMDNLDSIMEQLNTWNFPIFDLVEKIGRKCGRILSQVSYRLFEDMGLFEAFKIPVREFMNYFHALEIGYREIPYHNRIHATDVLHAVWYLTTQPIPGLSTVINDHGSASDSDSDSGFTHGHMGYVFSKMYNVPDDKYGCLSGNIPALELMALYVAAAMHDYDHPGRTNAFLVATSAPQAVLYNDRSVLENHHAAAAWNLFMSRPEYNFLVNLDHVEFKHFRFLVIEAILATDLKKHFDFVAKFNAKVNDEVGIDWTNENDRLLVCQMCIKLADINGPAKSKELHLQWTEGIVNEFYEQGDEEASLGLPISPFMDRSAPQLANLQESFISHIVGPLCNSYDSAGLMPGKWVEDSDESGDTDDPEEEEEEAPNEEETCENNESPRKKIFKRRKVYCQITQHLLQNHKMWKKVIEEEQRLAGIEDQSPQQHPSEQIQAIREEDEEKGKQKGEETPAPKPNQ
Description: PDE2 was isolated from human platelets following the method described in [44]. Purified PDEs were stored as small aliquots at −80°C until use. PDE activity was determined at a substrate concentration of 1 µM cAMP or cGMP in the presence of 10,000 cpm [^3H]-cAMP or -cGMP as tracers. PDE1 activity was assessed at 1 µM cGMP in calmodulin-activated state (18 nM calmodulin with 10 µM CaCl2). […] This concentration of DMSO had no effect when tested in control preparation.

PDE1 = assay: IC50 on purified PDE1 isozyme (calmodulin-activated); type: biochemical, bovine; details: 1 µM cGMP substrate, CaM modulator; mean±s.e.m. of three experiments
Description: as §1

[3] = Solubility in injection vehicle PBS-10% ethanol; type: physicochemical; details: at 100 µg/100 µL
human PBLs = system: human PBLs; parameters: method as in PMID 10640302; details: read-out: IC50 LPS-induced TNFα secretion by human PBLs; cited from earlier work
[4] = molecular target: High Affinity Rolipram Binding Site (HARBS); assay: 3H-rolipram binding assay on rat brain membranes; details: rat brain membrane, 4 nM 3H-rolipram; read-out: Ki toward 3H-rolipram binding (HARBS)
Description: The assay was done in 50 mM N-Tris hydroxymethyl methyl-2-aminoethane sulfonic acid/NaOH buffer, pH 7.6, containing 10 mM MgCl2, 0.1 M NaCl and 100 µM 5′AMP. […] Binding assays were started by the addition of 100 µL of rat brain membrane (0.9 mg protein/mL) to the reaction mixture and conducted at 23°C for 1 h under agitation and stopped by the addition of 3 mL of ice-cold reaction buffer and rapid vacuum filtration through Whatman GF/B filters that have been soaked in 0.3% (v/v) polyethylenimine. Filters were washed twice (3 ml of ice-cold reaction buffer without 5′AMP), dried and counted by liquid scintillation. […] Ki and confidence interval values of binding studies were determined by using one site fit Ki GraphPad Prism5 analysis.

human recombinant PDE4B = molecular target: T3, human recombinant PDE4B (Homo sapiens, UniProt Q07343); assay: IC50 on human recombinant PDE4B; type: biochemical
T3 construct: gift of Ted J. Torphy (SmithKline Beecham Pharmaceuticals, King of Prussia, PA, USA)

acid gastric secretion = system: acid gastric secretion; parameters: method as in PMID 10640302; details: cited from earlier work
PDE5 = molecular target: T4, PDE5 (Bos taurus, UniProt Q28156); assay: IC50 on purified PDE5 isozyme; type: biochemical, bovine; details: 1 µM cGMP substrate; mean±s.e.m. of three experiments
T4 construct: isolated by anion exchange chromatography from bovine aortic smooth muscle cytosolic fraction; from tissue; host or cells: bovine aortic smooth muscle cytosolic fraction
Description: as §1

PDE2 = molecular target: T5, PDE2 (Homo sapiens, UniProt O00408); assay: IC50 on purified PDE2 isozyme (cGMP-activated); type: biochemical; details: 1 µM cAMP substrate, cGMP modulator; mean±s.e.m. of three experiments
T5 construct: PDE2 was isolated from human platelets; from tissue; host or cells: human platelets
Description: as §1

PBLs from MRL/lpr mice = assay: Ex vivo LPS-induced TNFα secretion by PBLs from treated MRL/lpr mice; type: in vivo, mouse; details: PBLs of 14 week-old mice treated i.v. (100 µg pentoxifylline or denbufylline, 30 µg NCS 613); 5 µg/mL LPS, 24 h
Description: Blood samples were pooled from groups of seven 14 week-old treated mice. PBLs were purified by density separation (Lympholyte-M, d = 1.0875; Cedarlane, Hornby, Canada), washed three times, and resuspended at 5×10^6 cells/ml in L-alanyl-L-glutamine-enriched RPMI 1640 medium (Cambrex, Verviers, Belgium) containing 10% (v/v) fetal calf serum (Dutscher, Brumath, France), HEPES, gentamycin and β-mercaptoethanol. They were cultured in duplicate using 5×10^5 cells/well in the presence of 5 µg/mL LPS from E. coli. Culture supernatants were collected after 24 h and stored frozen at −20°C. TNFα levels were determined using a double-sandwich ELISA (PharMingen, San Diego, CA; detection limit 30 pg/mL) according to the manufacturer's instructions.

human recombinant PDE4D = molecular target: T6, human recombinant PDE4D (Homo sapiens, UniProt Q08499); assay: IC50 on human recombinant PDE4D; type: biochemical
T6 construct: gift of Ted J. Torphy (SmithKline Beecham Pharmaceuticals, King of Prussia, PA, USA)

human recombinant PDE4C = molecular target: T7, human recombinant PDE4C (Homo sapiens, UniProt Q08493); assay: IC50 on human recombinant PDE4C; type: biochemical; details: 1 µM cAMP; with confidence interval
T7 construct: gift of Ted J. Torphy (SmithKline Beecham Pharmaceuticals, King of Prussia, PA, USA)

[5] = 1 µM cAMP, with confidence interval

T1 sequence (P27815 whole entry): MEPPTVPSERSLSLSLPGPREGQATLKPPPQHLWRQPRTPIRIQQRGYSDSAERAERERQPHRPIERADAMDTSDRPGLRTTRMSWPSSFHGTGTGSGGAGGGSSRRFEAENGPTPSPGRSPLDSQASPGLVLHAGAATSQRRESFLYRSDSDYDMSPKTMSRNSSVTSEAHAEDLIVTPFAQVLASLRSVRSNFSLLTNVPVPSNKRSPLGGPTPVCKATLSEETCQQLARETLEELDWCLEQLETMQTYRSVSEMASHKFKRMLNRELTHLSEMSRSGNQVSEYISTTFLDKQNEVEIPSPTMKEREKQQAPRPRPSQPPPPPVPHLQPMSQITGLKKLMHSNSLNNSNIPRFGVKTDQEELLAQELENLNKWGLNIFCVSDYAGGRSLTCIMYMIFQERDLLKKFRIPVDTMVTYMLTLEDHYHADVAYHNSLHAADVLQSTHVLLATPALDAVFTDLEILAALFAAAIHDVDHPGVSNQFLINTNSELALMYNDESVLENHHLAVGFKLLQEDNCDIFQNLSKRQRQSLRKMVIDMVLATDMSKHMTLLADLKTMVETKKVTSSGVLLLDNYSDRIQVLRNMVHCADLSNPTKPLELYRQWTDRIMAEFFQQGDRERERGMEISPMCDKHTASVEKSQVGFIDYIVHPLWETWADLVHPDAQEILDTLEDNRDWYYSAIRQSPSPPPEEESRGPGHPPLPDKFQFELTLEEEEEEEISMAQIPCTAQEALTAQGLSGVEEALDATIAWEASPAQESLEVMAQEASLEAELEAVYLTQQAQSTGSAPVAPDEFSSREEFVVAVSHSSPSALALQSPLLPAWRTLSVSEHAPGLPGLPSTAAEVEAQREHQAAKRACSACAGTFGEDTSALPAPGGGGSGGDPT
T6 sequence (Q08499 whole entry): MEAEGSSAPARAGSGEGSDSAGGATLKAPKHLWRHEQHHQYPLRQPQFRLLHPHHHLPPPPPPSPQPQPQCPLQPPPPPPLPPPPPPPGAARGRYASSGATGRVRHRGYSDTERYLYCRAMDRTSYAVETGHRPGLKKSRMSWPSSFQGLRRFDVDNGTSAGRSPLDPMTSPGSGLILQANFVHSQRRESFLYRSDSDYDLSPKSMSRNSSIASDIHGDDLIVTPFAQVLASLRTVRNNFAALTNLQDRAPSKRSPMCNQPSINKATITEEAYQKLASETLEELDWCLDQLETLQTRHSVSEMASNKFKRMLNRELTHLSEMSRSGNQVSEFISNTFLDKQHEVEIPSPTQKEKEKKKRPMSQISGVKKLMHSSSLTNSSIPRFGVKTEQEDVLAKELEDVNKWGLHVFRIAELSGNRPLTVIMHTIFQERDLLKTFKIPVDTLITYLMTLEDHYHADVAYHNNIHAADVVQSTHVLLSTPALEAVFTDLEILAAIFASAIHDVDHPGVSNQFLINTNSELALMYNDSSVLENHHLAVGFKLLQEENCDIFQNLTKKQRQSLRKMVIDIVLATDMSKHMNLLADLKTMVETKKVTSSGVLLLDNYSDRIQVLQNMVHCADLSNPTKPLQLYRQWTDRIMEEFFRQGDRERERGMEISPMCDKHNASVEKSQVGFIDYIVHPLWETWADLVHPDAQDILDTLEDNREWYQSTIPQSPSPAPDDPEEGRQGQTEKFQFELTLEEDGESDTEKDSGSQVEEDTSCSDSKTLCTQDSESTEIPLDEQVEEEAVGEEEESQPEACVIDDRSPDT
T5 sequence (O00408 whole entry): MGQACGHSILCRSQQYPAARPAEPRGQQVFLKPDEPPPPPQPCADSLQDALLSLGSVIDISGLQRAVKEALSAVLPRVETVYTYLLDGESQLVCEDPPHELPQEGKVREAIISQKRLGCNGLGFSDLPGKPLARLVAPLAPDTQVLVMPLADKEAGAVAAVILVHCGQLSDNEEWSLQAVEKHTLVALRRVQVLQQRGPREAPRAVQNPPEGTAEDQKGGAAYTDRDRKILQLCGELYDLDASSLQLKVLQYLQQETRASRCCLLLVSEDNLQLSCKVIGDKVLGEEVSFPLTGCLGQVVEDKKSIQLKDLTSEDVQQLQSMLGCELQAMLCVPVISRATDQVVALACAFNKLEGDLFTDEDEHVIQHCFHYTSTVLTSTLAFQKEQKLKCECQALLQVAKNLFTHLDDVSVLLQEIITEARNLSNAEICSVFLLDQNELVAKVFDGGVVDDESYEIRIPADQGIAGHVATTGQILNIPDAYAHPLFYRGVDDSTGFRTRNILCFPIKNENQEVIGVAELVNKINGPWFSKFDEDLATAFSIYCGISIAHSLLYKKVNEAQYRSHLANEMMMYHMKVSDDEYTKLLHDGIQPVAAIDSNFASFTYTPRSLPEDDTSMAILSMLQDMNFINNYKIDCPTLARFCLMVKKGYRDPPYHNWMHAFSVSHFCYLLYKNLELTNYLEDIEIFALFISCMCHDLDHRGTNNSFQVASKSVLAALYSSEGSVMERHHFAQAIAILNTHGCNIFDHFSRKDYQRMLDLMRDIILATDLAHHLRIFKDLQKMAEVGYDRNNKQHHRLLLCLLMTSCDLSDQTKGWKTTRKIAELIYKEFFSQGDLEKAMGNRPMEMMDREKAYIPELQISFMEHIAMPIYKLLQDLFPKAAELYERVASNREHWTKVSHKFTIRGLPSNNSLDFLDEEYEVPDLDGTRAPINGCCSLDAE
T3 sequence (Q07343 whole entry): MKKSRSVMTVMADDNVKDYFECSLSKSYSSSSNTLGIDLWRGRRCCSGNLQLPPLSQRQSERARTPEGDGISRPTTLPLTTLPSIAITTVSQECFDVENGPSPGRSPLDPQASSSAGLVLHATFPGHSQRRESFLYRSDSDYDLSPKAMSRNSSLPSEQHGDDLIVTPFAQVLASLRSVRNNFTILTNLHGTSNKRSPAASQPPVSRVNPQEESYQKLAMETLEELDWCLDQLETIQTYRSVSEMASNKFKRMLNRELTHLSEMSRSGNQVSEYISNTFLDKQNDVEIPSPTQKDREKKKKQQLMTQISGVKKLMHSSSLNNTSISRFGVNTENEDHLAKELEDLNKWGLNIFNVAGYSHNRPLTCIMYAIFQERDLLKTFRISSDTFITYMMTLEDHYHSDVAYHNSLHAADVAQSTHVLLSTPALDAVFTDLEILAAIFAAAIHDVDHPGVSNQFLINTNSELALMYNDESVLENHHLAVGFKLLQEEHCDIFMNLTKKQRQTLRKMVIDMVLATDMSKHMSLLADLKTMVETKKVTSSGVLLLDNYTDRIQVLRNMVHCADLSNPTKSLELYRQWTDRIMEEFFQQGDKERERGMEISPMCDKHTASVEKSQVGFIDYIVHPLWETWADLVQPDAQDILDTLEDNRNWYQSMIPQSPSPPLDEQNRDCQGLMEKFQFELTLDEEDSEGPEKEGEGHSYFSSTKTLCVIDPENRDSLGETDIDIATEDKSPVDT
T7 sequence (Q08493 whole entry): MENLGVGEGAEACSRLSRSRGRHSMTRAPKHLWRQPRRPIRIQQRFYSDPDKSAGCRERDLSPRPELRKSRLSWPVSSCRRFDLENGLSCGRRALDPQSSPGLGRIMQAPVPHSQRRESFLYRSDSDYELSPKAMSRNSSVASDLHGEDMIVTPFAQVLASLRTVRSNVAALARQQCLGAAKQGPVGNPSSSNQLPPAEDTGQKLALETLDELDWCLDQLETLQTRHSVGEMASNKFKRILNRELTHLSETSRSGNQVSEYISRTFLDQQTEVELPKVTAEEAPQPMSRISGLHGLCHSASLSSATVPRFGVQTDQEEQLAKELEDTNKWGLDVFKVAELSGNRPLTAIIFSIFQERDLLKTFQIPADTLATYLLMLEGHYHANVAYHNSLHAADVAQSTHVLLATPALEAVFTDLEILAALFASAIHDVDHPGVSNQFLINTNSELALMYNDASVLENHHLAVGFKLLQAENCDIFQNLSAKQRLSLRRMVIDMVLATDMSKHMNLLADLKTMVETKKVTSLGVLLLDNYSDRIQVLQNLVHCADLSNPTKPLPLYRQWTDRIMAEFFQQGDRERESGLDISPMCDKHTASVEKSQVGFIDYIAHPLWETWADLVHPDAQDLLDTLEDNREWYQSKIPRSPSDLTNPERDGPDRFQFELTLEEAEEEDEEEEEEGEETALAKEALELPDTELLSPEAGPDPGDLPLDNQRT

CNc1nc(C(F)(F)F)nc2c1ncn2Cc1ccccc1F [NCS 613]
PDE4 selectivity relatively to PDE1 (PDE4 [1]): 930 fold
PDE4 selectivity relatively to PDE5 (PDE4 [1]): 112 fold
IC50 (PDE4 [1]): 0.042 ± 0.003 µM
PDE5/PDE4 ratio (PDE4 [1]; ratio of IC50 values PDE5/PDE4): 111.9
IC50 (human recombinant PDE4A): 0.044 µM
IC50 (human recombinant PDE4A; [5]): 0.0436 µM
IC50 (PDE4 [2]): 0.042 µM
Age of the first mouse that developed proteinuria (MRL/lpr lupus-prone mice; 30 µg i.v. at 5, 7, 9 and 13 weeks): 18 week-old
Effect on survival of MRL/lpr mice (MRL/lpr lupus-prone mice; 30 µg i.v. at 5, 7, 9 and 13 weeks, P = 0.005): significantly increased
Mice still alive (MRL/lpr lupus-prone mice; at 31 weeks, 30 µg i.v. at 5, 7, 9 and 13 weeks): 50%
Proteinuria level compared to the control group (MRL/lpr lupus-prone mice): significantly lower
Age at which treated mice started dying (MRL/lpr lupus-prone mice): 26 weeks
Decrease of basal TNFα secretion level (PBLs from SLE patients; 10 µM, no LPS, cells from patient 2): 67%
Effect on LPS-induced TNFα production (PBLs from SLE patients; patient SLE1, 0.1 µM): No effect
Effect on LPS-induced TNFα production (PBLs from SLE patients; patient SLE1, 1 µM): significantly suppressed
Effect on LPS-induced TNFα production (PBLs from SLE patients; patient SLE1, 10 µM): significantly suppressed
IC50 (PDE3): > 300 µM
IC50 (PDE1): 39 ± 2 µM
Solubility in PBS-10% ethanol [3]: not soluble
IC50 (human PBLs): 0.018 µM
Ki [4]: 0.148 µM
IC50 (human recombinant PDE4B): 0.048 µM
IC50 (human recombinant PDE4B; [5]): 0.0481 µM
Induction of acid gastric secretion (acid gastric secretion): does not induce
IC50 (PDE5): 4.7 ± 0.1 µM
IC50 (PDE2): 24 ± 3 µM
Inhibition rate of LPS-induced TNFα secretion (PBLs from MRL/lpr mice): 54%
IC50 (human recombinant PDE4D): 0.014 µM
IC50 (human recombinant PDE4D; [5]): 0.0144 µM
IC50 (human recombinant PDE4C): 0.0014 µM

CC(=O)CCCCn1c(=O)c2c(ncn2C)n(C)c1=O [Pentoxifylline, pentoxifylline]
IC50 (PDE4 [1]): 135 ± 11 µM
Median survival time (MRL/lpr lupus-prone mice): 27.5 weeks
Mice with positive proteinuria (MRL/lpr lupus-prone mice): around 50%
Proteinuria level compared to the control group (MRL/lpr lupus-prone mice): significantly lower
Age at which treated mice started dying (MRL/lpr lupus-prone mice): 22 weeks
IC50 (PDE1): 236 ± 20 µM
IC50 (PDE5): 74 ± 6 µM
IC50 (PDE2): 119 ± 10 µM
Inhibition rate of LPS-induced TNFα secretion (PBLs from MRL/lpr mice): 51%

CCCCn1c(=O)c2c(ncn2CC(C)=O)n(CCCC)c1=O [Denbufylline, denbufylline]
IC50 (PDE4 [1]): 0.76 ± 0.05 µM
Median survival time (MRL/lpr lupus-prone mice): 26.5 weeks
Mice with positive proteinuria (MRL/lpr lupus-prone mice): around 50%
Age at which treated mice started dying (MRL/lpr lupus-prone mice): 15 weeks
IC50 (PDE1): 133 ± 11 µM
Inhibition rate of LPS-induced TNFα secretion (PBLs from MRL/lpr mice): 70%
